Measured values: US8039670B2, “Analogs of alpha galactosyceramide and uses thereof” (Ludwig Institute for Cancer Research, priority 2005, dated 2011)

What was measured:
DC = assay: Viability of analog-pulsed DC co-cultured with iNKT cells (propidium iodide); format: cell-based, human; settings: at concentration of maximal DC maturation
Experimental: (§1) Different analogs of α-GalCer as indicated or LPS were added to co-cultures of human DC and iNKT cells. (A) Maturation of the DC was assessed after 40 h, gating on CD11c positive cells. Histograms indicate the CD83 and CD86 profiles of DC from different treatments; the percentages indicate the percentage of CD83hi mature DC and the numbers in parenthesis, the mean fluorescence intensity of the population contained within the labeled gate. DC and iNKT cells were co-cultured in the presence of different analogs of α-GalCer for 24 hours. Supernatants were analyzed using ELISA for the presence of (B) IL-12p40 released by the DC and (C) IFN-γ from the iNKT cells. All the compounds tested induced weaker but significant cytokine production than α-GalCer, with the exception of arabinitolceramide. (D) Titration of α-GalCer, OCH or threitolceramide on DCs and co-culture with iNKT cells induces DC maturation in vitro. Cells were co-cultured in the presence of the indicated concentration of analog and the percentages of DC with increased CD83/CD80 are shown. […] Viability of α-GalCer or analog-pulsed DC was assessed after 40 h co-culture in the presence of iNKT cells by flow cytometry. Cells were stained with propidium iodide and the percentage of live CD11c gated cells remaining in the culture are shown.
(§2) To compare the functions of high affinity α-GalCer, intermediate affinity threitolceramide with the known, low affinity analog OCH, the three compounds were titrated onto DC and used to present to iNKT cells. Maturation of DC and DC viability were examined after 48 h.

NKT cells = settings: cancer patients, after treatment; cited from earlier work
OVA-specific IgGs = assay: OVA-specific IgG in serum after co-administration with OVA (ELISA, FIG. 7B); format: in vivo, mice; settings: 1 μg with 400 μg OVA, bled 11-14d
Experimental: (A) C57BL/6 or iNKT^−/− mice were injected i.v. with 1 μg of vehicle, α-GalCer, analog or 25 μg MPL. Twenty hours after injection splenocytes were stained with antibodies against B220 and CD86 and analyzed by flow cytometry. Maturation was assessed by the upregulation of CD86 at the cell surface, gating on B cells (B220^+). Mean fluorescence intensity for each histogram is indicated. […] Mice were bled 11-14d after administration and the serum tested by ELISA for antibodies. Briefly, ELISA plates were coated with 10 μg/ml OVA and then serial dilutions of sera added and incubated overnight at 4° C. before detecting with an HRP-conjugated sheep anti-mouse IgG.
Non-glycolipid analogs of α-GalCer stimulate B cell maturation in the presence of iNKT cells in vivo and subsequent antibody production. (A) C57BL/6 or iNKT^−/− mice were injected i.v. with 1 μg of vehicle, α-GalCer, analog or 25 μg MPL. Twenty hours after injection splenocytes were stained with antibodies against B220 and CD86 and analyzed by flow cytometry. Maturation was assessed by the upregulation of CD86 at the cell surface, gating on B cells (B220^+) (FIG. 7 A). Mean fluorescence intensity for each histogram is indicated. […] Mice were bled 11-14d after administration and the serum tested by ELISA for antibodies (FIG. 7 B).

[1] = Viability of analog-pulsed DC co-cultured with iNKT cells (propidium iodide); format: cell-based, human; settings: human; at concentration of maximal DC maturation; read-out: DC still viable
Experimental: as §1, §2

| Structure (SMILES) | DC viability (propidium iodide negative) compared with α-GalCer (DC) | time until NKT cells in peripheral blood fell to undetectable levels (NKT cells) | OVA-specific IgGs (OVA-specific IgGs) | viability at 48 h, 0.8 ng/ml [1] |
| --- | --- | --- | --- | --- |
| CCCCCCCCCCCCCCCCCCCCCCCCCC(=O)N[C@@H](COC[C@H](O)[C@@H](O)CO)[C@H](O)[C@H](O)CCCCCCCCCCCCCC [Compound 3, Threitol Ceramide] | significantly greater proportion of DC were propidium iodide negative | – | – | – |
| CCCCCCCCCCCCCCCCCCCCCCCCCC(=O)N[C@@H](CO[C@H]1OC(CO)[C@H](O)C(O)C1O)[C@H](O)[C@H](O)CCCCCCCCCCCCCC (stereo partly drawn) [α-GalCer, α galactosylceramide, reference compound] | – | ≤ 24 h | induces significant OVA-specific IgGs | 10% |
